Test results taken from patent US20250145665A1, “MACROCYCLIC PEPTIDES USEFUL AS MODULATORS OF TNF ALPHA” (Bristol-Myers Squibb Company, priority 2023, published 2025).
Where two headings read alike, the source gives them in different places. Starred links: 1 amine or outer side, 2 acyl side, 3 side chain; linkers in the order of their positions; H or OH if unused. Positions of bridges follow the written chain, without caps; N, C: chain ends. Non-standard residues stand in square brackets, D forms with d. Residues, ends and D or L forms follow the SMILES beside them. *: point of attachment. Bip(4'-NHCO-C6H4-3-CH2COOH) = N[C@@H](Cc1ccc(-c2ccc(NC(=O)c3cccc(CC(=O)O)c3)cc2)cc1)C(=O)O; Bip(4'-NHCO-C6H4-4-CH2COOH) = N[C@@H](Cc1ccc(-c2ccc(NC(=O)c3ccc(CC(=O)O)cc3)cc2)cc1)C(=O)O; dArg(Nω-CH2C6H4-3-CH2Gua) = N=C(N)NCc1cccc(CNC(=N)NCCC[C@@H](N)C(=O)O)c1; Bip(4'-NH) = O=C([C@H](Cc1ccc(-c2ccc(N[*:3])cc2)cc1)N[*:1])[*:2]; dArg(ω-(3-HO-benzyl)) = N=C(NCCC[C@@H](N)C(=O)O)NCc1cccc(O)c1; Indazole3carbonyl(1-CH2COOH) = O=C(O)Cn1nc(C(=O)*)c2ccccc21; Bip(4'-COOH) = N[C@@H](Cc1ccc(-c2ccc(C(=O)O)cc2)cc1)C(=O)O; Ala(morpholin-4-yl) = N[C@@H](CN1CCOCC1)C(=O)O; Benzoyl(3-OCH2COOH) = O=C(O)COc1cccc(C(=O)*)c1; Phe(3-CONH2) = NC(=O)c1cccc(C[C@H](N)C(=O)O)c1; Bip = N[C@@H](Cc1ccc(-c2ccccc2)cc1)C(=O)O; 2Pal = N[C@@H](Cc1ccccn1)C(=O)O; 2Thi = N[C@@H](Cc1cccs1)C(=O)O; Cha = N[C@@H](CC1CCCCC1)C(=O)O; Tle = CC(C)(C)[C@H](N)C(=O)O; Sar = CNCC(=O)O

Target: TNFα (Homo sapiens, UniProt P01375)
Assay: TNF-Induced HEK-Blue Assay
Type: cell-based
[1] = HEK-Blue-CD40L cells, NF-kB-driven secreted alkaline phosphatase reporter, TNFα 0.5 ng/ml, 18 h, read-out: TNF induced HEK-Blue assay IC50 value

TNFα, sequence (P01375 77-233 limits assumed): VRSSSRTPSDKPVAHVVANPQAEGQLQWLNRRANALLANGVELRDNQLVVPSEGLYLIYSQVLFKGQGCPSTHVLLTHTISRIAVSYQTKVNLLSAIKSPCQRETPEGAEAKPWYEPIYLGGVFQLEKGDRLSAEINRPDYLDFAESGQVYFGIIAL

Row | Structure (SMILES) | IC50 [1] [nM] | IC50 [nM]
1 | CC(C)C[C@@H]1NC(=O)[C@H](Cc2cccs2)NC(=O)[C@H](C(C)C)NC(=O)[C@@H]2CCCN2C(=O)[C@H](C(C)C)NC(=O)[C@@H](CCCNC(=N)N)NC(=O)[C@H](CC(=O)O)NC(=O)[C@H](Cc2ccccn2)NC(=O)CN(C)C(=O)[C@H](Cc2ccc(-c3ccc(NC(=O)c4cccc(CC(=O)O)c4)cc3)cc2)NC(=O)[C@H](Cc2ccc(-c3ccc(C(=O)O)cc3)cc2)NC(=O)[C@H](CN2CCOCC2)NC(=O)CSC[C@@H](C(=O)NCC(N)=O)NC1=O [Example 610] ({CH2CO}-[Ala(morpholin-4-yl)][Bip(4'-COOH)][Bip(4'-NHCO-C6H4-3-CH2COOH)][Sar][2Pal]D[dR]VPV[2Thi]LCG-NH2; thioether N-13) | < 50 | –
2 | CC(C)C[C@@H]1NC(=O)[C@H](Cc2cccs2)NC(=O)[C@H](C(C)C)NC(=O)[C@@H]2CCCN2C(=O)[C@H](C(C)C)NC(=O)[C@@H](CCCNC(=N)N)NC(=O)[C@H](CC(=O)O)NC(=O)[C@H](Cc2ccccn2)NC(=O)CN(C)C(=O)[C@H](Cc2ccc(-c3ccc(NC(=O)c4ccc(CC(=O)O)cc4)cc3)cc2)NC(=O)[C@H](Cc2ccc(-c3ccc(C(=O)O)cc3)cc2)NC(=O)[C@H](CN2CCOCC2)NC(=O)CSC[C@@H](C(=O)NCC(N)=O)NC1=O [Example 611] ({CH2CO}-[Ala(morpholin-4-yl)][Bip(4'-COOH)][Bip(4'-NHCO-C6H4-4-CH2COOH)][Sar][2Pal]D[dR]VPV[2Thi]LCG-NH2; thioether N-13) | < 50 | –
3 | CC(C)C[C@@H]1NC(=O)[C@H](Cc2cccs2)NC(=O)[C@H](C(C)C)NC(=O)[C@@H]2CCCN2C(=O)[C@H](C(C)C)NC(=O)[C@@H](CCCNC(=N)N)NC(=O)[C@H](CC(=O)O)NC(=O)[C@H](Cc2ccccn2)NC(=O)CN(C)C(=O)[C@H](Cc2ccc(-c3ccc(NC(=O)c4ccc(CC(=O)O)cc4)cc3)cc2)NC(=O)[C@H](Cc2ccc(-c3ccc(C(=O)O)cc3)cc2)NC(=O)[C@H](CC2CCCCC2)NC(=O)CSC[C@@H](C(=O)NCC(N)=O)NC1=O [Example 612] ({CH2CO}-[Cha][Bip(4'-COOH)][Bip(4'-NHCO-C6H4-4-CH2COOH)][Sar][2Pal]D[dR]VPV[2Thi]LCG-NH2; thioether N-13) | 50 to 200 | –
4 | CC(C)C[C@@H]1NC(=O)[C@H](Cc2cccs2)NC(=O)[C@H](C(C)C)NC(=O)[C@@H]2CCCN2C(=O)[C@H](C(C)C)NC(=O)[C@@H](CCCNC(=N)N)NC(=O)[C@H](CC(=O)O)NC(=O)[C@H](Cc2ccccn2)NC(=O)CN(C)C(=O)[C@H](Cc2ccc(-c3ccc(NC(=O)c4cccc(CC(=O)O)c4)cc3)cc2)NC(=O)[C@H](Cc2ccc(-c3ccc(C(=O)O)cc3)cc2)NC(=O)[C@H](CC2CCCCC2)NC(=O)CSC[C@@H](C(=O)NCC(N)=O)NC1=O [Example 613] ({CH2CO}-[Cha][Bip(4'-COOH)][Bip(4'-NHCO-C6H4-3-CH2COOH)][Sar][2Pal]D[dR]VPV[2Thi]LCG-NH2; thioether N-13) | 50 to 200 | –
5 | CC(C)C[C@@H]1NC(=O)[C@H](Cc2cccs2)NC(=O)[C@H](C(C)C)NC(=O)[C@@H]2CCCN2C(=O)[C@H](C(C)C)NC(=O)[C@@H](CCCNC(=N)N)NC(=O)[C@H](CC(=O)O)NC(=O)[C@H](Cc2ccccn2)NC(=O)CN(C)C(=O)[C@H](Cc2ccc(-c3ccc(NC(=O)c4cccc(OCC(=O)O)c4)cc3)cc2)NC(=O)[C@H](Cc2ccc(-c3ccc(C(=O)O)cc3)cc2)NC(=O)[C@H](CC2CCCCC2)NC(=O)CSC[C@@H](C(=O)NCC(N)=O)NC1=O [Example 614] ({CH2CO}-[Cha][Bip(4'-COOH)][Bip(4'-NH)](Benzoyl(3-OCH2COOH))[Sar][2Pal]D[dR]VPV[2Thi]LCG-NH2; thioether N-13) | 50 to 200 | –
6 | CC(C)C[C@@H]1NC(=O)[C@H](Cc2cccs2)NC(=O)[C@H](C(C)C)NC(=O)[C@@H]2CCCN2C(=O)[C@H](C(C)C)NC(=O)[C@@H](CCCNC(=N)N)NC(=O)[C@H](CC(=O)O)NC(=O)[C@H](Cc2ccccn2)NC(=O)CN(C)C(=O)[C@H](Cc2ccc(-c3ccc(NC(=O)c4cccc(OCC(=O)O)c4)cc3)cc2)NC(=O)[C@H](Cc2ccc(-c3ccc(C(=O)O)cc3)cc2)NC(=O)[C@H](C(C)(C)C)NC(=O)CSC[C@@H](C(=O)NCC(N)=O)NC1=O [Example 615] ({CH2CO}-[Tle][Bip(4'-COOH)][Bip(4'-NH)](Benzoyl(3-OCH2COOH))[Sar][2Pal]D[dR]VPV[2Thi]LCG-NH2; thioether N-13) | 50 to 200 | –
7 | CC(C)C[C@@H]1NC(=O)[C@H](Cc2cccs2)NC(=O)[C@H](C(C)C)NC(=O)[C@@H]2CCCN2C(=O)[C@H](C(C)C)NC(=O)[C@@H](CCCNC(=N)N)NC(=O)[C@H](CC(=O)O)NC(=O)[C@H](Cc2ccccn2)NC(=O)CN(C)C(=O)[C@H](Cc2ccc(-c3ccc(NC(=O)c4cccc(OCC(=O)O)c4)cc3)cc2)NC(=O)[C@H](Cc2ccc(-c3ccccc3)cc2)NC(=O)[C@H](CC2CCCCC2)NC(=O)CSC[C@@H](C(=O)NCC(N)=O)NC1=O [Example 616] ({CH2CO}-[Cha][Bip][Bip(4'-NH)](Benzoyl(3-OCH2COOH))[Sar][2Pal]D[dR]VPV[2Thi]LCG-NH2; thioether N-13) | 50 to 200 | –
8 | CC(C)C[C@@H]1NC(=O)[C@H](Cc2cccs2)NC(=O)[C@H](C(C)C)NC(=O)[C@@H]2CCCN2C(=O)[C@H](C(C)C)NC(=O)[C@@H](CCCNC(=N)N)NC(=O)[C@H](CC(=O)O)NC(=O)[C@H](Cc2ccccn2)NC(=O)CN(C)C(=O)[C@H](Cc2ccc(-c3ccc(NC(=O)c4ccc(CC(=O)O)cc4)cc3)cc2)NC(=O)[C@H](Cc2ccc(-c3ccccc3)cc2)NC(=O)[C@H](CC2CCCCC2)NC(=O)CSC[C@@H](C(=O)NCC(N)=O)NC1=O [Example 617] ({CH2CO}-[Cha][Bip][Bip(4'-NHCO-C6H4-4-CH2COOH)][Sar][2Pal]D[dR]VPV[2Thi]LCG-NH2; thioether N-13) | < 50 | –
9 | CC(C)C[C@@H]1NC(=O)[C@H](Cc2cccs2)NC(=O)[C@H](C(C)C)NC(=O)[C@@H]2CCCN2C(=O)[C@H](C(C)C)NC(=O)[C@@H](CCCNC(=N)N)NC(=O)[C@H](CC(=O)O)NC(=O)[C@H](Cc2ccccn2)NC(=O)CN(C)C(=O)[C@H](Cc2ccc(-c3ccc(NC(=O)c4cccc(CC(=O)O)c4)cc3)cc2)NC(=O)[C@H](Cc2ccc(-c3ccccc3)cc2)NC(=O)[C@H](CC2CCCCC2)NC(=O)CSC[C@@H](C(=O)NCC(N)=O)NC1=O [Example 618] ({CH2CO}-[Cha][Bip][Bip(4'-NHCO-C6H4-3-CH2COOH)][Sar][2Pal]D[dR]VPV[2Thi]LCG-NH2; thioether N-13) | 50 to 200 | –
10 | CC(C)C[C@@H]1NC(=O)[C@H](Cc2cccc(C(N)=O)c2)NC(=O)[C@H](C(C)C)NC(=O)[C@@H]2CCCN2C(=O)[C@H](C(C)C)NC(=O)[C@@H](CCCNC(=N)NCc2cccc(CNC(=N)N)c2)NC(=O)[C@H](CC(=O)O)NC(=O)[C@H](Cc2ccc(O)cc2)NC(=O)CN(C)C(=O)[C@H](Cc2ccc(-c3ccc(NC(=O)c4nn(CC(=O)O)c5ccccc45)cc3)cc2)NC(=O)[C@H](Cc2ccc(-c3ccccc3)cc2)NC(=O)[C@H](CN2CCOCC2)NC(=O)CSC[C@@H](C(=O)NCC(N)=O)NC1=O [Example 620] ({CH2CO}-[Ala(morpholin-4-yl)][Bip][Bip(4'-NH)](Indazole3carbonyl(1-CH2COOH))[Sar]YD[dArg(Nω-CH2C6H4-3-CH2Gua)]VPV[Phe(3-CONH2)]LCG-NH2; thioether N-13) | – | < 50
11 | CC(C)C[C@@H]1NC(=O)[C@H](Cc2cnc[nH]2)NC(=O)[C@H](C(C)C)NC(=O)[C@@H]2CCCN2C(=O)[C@H](C(C)C)NC(=O)[C@@H](CCCNC(=N)NCc2cccc(CNC(=N)N)c2)NC(=O)[C@H](CC(=O)O)NC(=O)[C@H](Cc2ccccn2)NC(=O)CN(C)C(=O)[C@H](Cc2ccc(-c3ccc(NC(=O)c4nn(CC(=O)O)c5ccccc45)cc3)cc2)NC(=O)[C@H](Cc2ccc(-c3ccccc3)cc2)NC(=O)[C@H](CN2CCOCC2)NC(=O)CSC[C@@H](C(=O)NCC(N)=O)NC1=O [Example 621] ({CH2CO}-[Ala(morpholin-4-yl)][Bip][Bip(4'-NH)](Indazole3carbonyl(1-CH2COOH))[Sar][2Pal]D[dArg(Nω-CH2C6H4-3-CH2Gua)]VPVHLCG-NH2; thioether N-13) | – | < 50
12 | CC(C)C[C@@H]1NC(=O)[C@H](Cc2ccc(O)cc2)NC(=O)[C@H](C(C)C)NC(=O)[C@@H]2CCCN2C(=O)[C@H](C(C)C)NC(=O)[C@@H](CCCNC(=N)NCc2cccc(CNC(=N)N)c2)NC(=O)[C@H](CC(=O)O)NC(=O)[C@@H]2CCCN2C(=O)CN(C)C(=O)[C@H](Cc2ccc(-c3ccc(NC(=O)c4nn(CC(=O)O)c5ccccc45)cc3)cc2)NC(=O)[C@H](Cc2ccc(-c3ccccc3)cc2)NC(=O)[C@H](CN2CCOCC2)NC(=O)CSC[C@@H](C(=O)NCC(N)=O)NC1=O [Example 622] ({CH2CO}-[Ala(morpholin-4-yl)][Bip][Bip(4'-NH)](Indazole3carbonyl(1-CH2COOH))[Sar]PD[dArg(Nω-CH2C6H4-3-CH2Gua)]VPVYLCG-NH2; thioether N-13) | – | < 50
13 | CC(C)C[C@@H]1NC(=O)[C@H](Cc2cccs2)NC(=O)[C@H](C(C)C)NC(=O)[C@@H]2CCCN2C(=O)[C@H](C(C)C)NC(=O)[C@@H](CCCNC(=N)NCc2cccc(CNC(=N)N)c2)NC(=O)[C@H](CC(=O)O)NC(=O)[C@H](Cc2ccccn2)NC(=O)CN(C)C(=O)[C@H](Cc2ccc(-c3ccc(NC(=O)c4nn(CC(=O)O)c5ccccc45)cc3)cc2)NC(=O)[C@H](Cc2ccc(-c3ccccc3)cc2)NC(=O)[C@H](CN2CCOCC2)NC(=O)CSC[C@@H](C(=O)NCC(N)=O)NC1=O [Example 623] ({CH2CO}-[Ala(morpholin-4-yl)][Bip][Bip(4'-NH)](Indazole3carbonyl(1-CH2COOH))[Sar][2Pal]D[dArg(Nω-CH2C6H4-3-CH2Gua)]VPV[2Thi]LCG-NH2; thioether N-13) | – | < 50
14 | CC(C)C[C@@H]1NC(=O)[C@H](Cc2cnc[nH]2)NC(=O)[C@H](C(C)C)NC(=O)[C@@H]2CCCN2C(=O)[C@H](C(C)C)NC(=O)[C@@H](CCCNC(=N)NCc2cccc(O)c2)NC(=O)[C@H](CC(=O)O)NC(=O)[C@H](Cc2ccccn2)NC(=O)CN(C)C(=O)[C@H](Cc2ccc(-c3ccc(NC(=O)c4nn(CC(=O)O)c5ccccc45)cc3)cc2)NC(=O)[C@H](Cc2ccc(-c3ccccc3)cc2)NC(=O)[C@H](CN2CCOCC2)NC(=O)CSC[C@@H](C(=O)NCC(N)=O)NC1=O [Example 624] ({CH2CO}-[Ala(morpholin-4-yl)][Bip][Bip(4'-NH)](Indazole3carbonyl(1-CH2COOH))[Sar][2Pal]D[dArg(ω-(3-HO-benzyl))]VPVHLCG-NH2; thioether N-13) | – | < 50
